Targets include PTGER2 (EP2) (Homo sapiens, UniProt P43116); PTRGER4 (EP4) (Homo sapiens, UniProt P35408); EP2 (Homo sapiens, UniProt P43116); EP4 (Homo sapiens, UniProt P35408).
What all share (test): cell-based

By IC50 is commonly meant the point on the concentration scale where inhibition reaches its midpoint. Read a high IC50 as weaker potency.

Sequence of PTGER2 (EP2) (P43116 whole entry): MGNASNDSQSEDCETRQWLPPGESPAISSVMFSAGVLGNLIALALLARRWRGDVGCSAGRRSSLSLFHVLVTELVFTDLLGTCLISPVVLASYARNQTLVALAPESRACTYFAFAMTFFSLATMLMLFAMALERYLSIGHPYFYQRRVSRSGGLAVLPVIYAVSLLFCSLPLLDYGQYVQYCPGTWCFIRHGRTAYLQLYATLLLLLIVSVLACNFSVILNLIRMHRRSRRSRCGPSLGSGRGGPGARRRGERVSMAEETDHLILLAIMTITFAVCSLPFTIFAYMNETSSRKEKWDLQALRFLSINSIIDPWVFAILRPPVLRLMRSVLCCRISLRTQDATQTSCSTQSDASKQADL
Sequence of EP2 (P43116 whole entry): as above
Sequence of PTRGER4 (EP4) (P35408 whole entry): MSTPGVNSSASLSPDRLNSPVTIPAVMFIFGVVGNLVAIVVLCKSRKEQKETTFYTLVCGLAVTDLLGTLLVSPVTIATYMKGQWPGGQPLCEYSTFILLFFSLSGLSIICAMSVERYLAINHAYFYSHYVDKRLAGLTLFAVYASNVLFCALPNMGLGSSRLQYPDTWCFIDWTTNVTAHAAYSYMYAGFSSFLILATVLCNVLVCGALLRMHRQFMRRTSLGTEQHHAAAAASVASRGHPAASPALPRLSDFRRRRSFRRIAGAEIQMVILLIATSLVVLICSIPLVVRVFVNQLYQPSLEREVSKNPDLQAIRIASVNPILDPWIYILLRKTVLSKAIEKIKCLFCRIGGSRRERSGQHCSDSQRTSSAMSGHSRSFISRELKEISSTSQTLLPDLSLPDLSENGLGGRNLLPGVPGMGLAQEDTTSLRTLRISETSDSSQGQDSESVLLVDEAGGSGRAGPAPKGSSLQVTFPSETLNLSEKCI
Sequence of EP4 (P35408 whole entry): as above

As for `O=C(O)c1ccc2[nH]c(-c3cc(NCCc4c(F)cc(Br)cc4F)ncn3)cc2c1` [Example 168, 2-{6-[2-(4-Bromo-2,6-difluoro-phenyl)-ethylamino]-pyrimidin-4-yl}-1H-indole-5-carboxylic acid], the 50% inhibitory concentration (IC50) at PTGER2 (EP2) stood at 190 nM; against PTRGER4 (EP4), 196 nM; at EP2, 1690 nM; against EP4 it was 2000 nM.
In the same order, the values of `COc1cc(C(F)(F)F)c(Cl)cc1CCNc1cc(-c2ccc(C(=O)O)c(SC)c2)ncn1` [Example 196, 4-{6-[2-(5-Chloro-2-methoxy-4-trifluoromethyl-phenyl)-ethylamino]-pyrimidin-4-yl}-2-methylsulfanyl-benzoic acid] are 235 nM, 113 nM, 400 nM and 107 nM.
In the same order, the values of `CNc1cc(-c2cc(NCCc3c(F)cc(Br)cc3F)ncn2)ccc1C(=O)NCCO` [Example 276, 4-{6-[2-(4-Bromo-2,6-difluoro-phenyl)-ethylamino]-pyrimidin-4-yl}-N-(2-hydroxy-ethyl)-2-methylamino-benzamide] are 23 nM, 37 nM, 59 nM and 72 nM.
In the same order, the values of `CCOc1cc(-c2cc(NCCc3cc(C)c(Br)cc3F)ncn2)sc1-c1noc(=O)[nH]1` [Example 114, 3-(5-{6-[2-(4-Bromo-2-fluoro-5-methyl-phenyl)-ethylamino]-pyrimidin-4-yl}-3-ethoxy-thiophen-2yl)-[1,2,4]oxadiazol-5(4H)-one] are 15 nM, 3 nM, 27 nM and 8 nM.
`CCOc1cc(-c2cc(NCCc3ccc(Br)cc3)ncn2)sc1NC(N)=O` [Example 146, (5-{6-[2-(4-Bromo-phenyl)-ethylamino]-pyrimidin-4-yl}-3-ethoxy-thiophen-2-yl)-urea]: the IC50 came to 39 nM at PTGER2 (EP2), 14 nM against PTRGER4 (EP4), 249 nM against EP2 and 189 nM on EP4.
With `O=C(O)c1ccc(-c2cc(NCCc3c(F)cc(Br)cc3F)ncn2)cc1OC1CC1` [Example 259, 4-{6-[2-(4-Bromo-2,6-difluoro-phenyl)-ethylamino]-pyrimidin-4-yl}-2-cyclopropoxy-benzoic acid], the IC50 at PTGER2 (EP2) is 46 nM; on PTRGER4 (EP4), 351 nM; at EP2, 45 nM; against EP4, 76 nM.
In the same order, the values of `CCOc1cc(-c2cc(NCCc3ccc(Br)c(OC)c3)ncn2)sc1-c1noc(=O)[nH]1` [Example 115, 3-(5-{6-[2-(4-Bromo-3-methoxy-phenyl)-ethylamino]-pyrimidin-4-yl}-3-ethoxy-thiophen-2yl)-[1,2,4]oxadiazol-5(4H)-one] are 44 nM, 16 nM, 51 nM and 12 nM.

Values taken from patent publication US11712438B2, “Phenyl derivatives as PGE2 receptor modulators” (IDORSIA PHARMACEUTICALS LTD, priority 2017, dated 2023).
